Experimental data reported in US20120196899A1, “METHODS AND PRODUCTS FOR TREATING INFLAMMATION” (Rock Creek Pharmaceuticals, Inc., priority 2010, published 2012).
“And” between values parts separate entries of the source, which are not always exact repeats. Equal values may be shown once. “Also recorded” adds a separate entry of the source.

Tests used:
[1] = Necropsy observations and organ weights, day 15; assay type: in vivo, Sprague-Dawley rats; conditions: female animals, group mean
Protocol: Body weight and food consumption was measured daily for 14 days. On day 15, urine was collected on all surviving animals. The animals were euthanized and bled via cardiac puncture, and blood was collected for analysis. Tissues were collected, weighed, evaluated for gross abnormalities, and stored in 10% neutral-buffered formalin.
(§1) On day 15, urine was collected on all surviving animals for urinalysis. The animals were euthanized and bled via cardiac puncture. Blood was collected for hematology, clinical chemistry, and coagulation analysis. Tissues were collected, weighed, and stored in 10% neutral-buffered formalin for possible future analysis.

[2] = Coagulation parameters (aPTT, PT), day 15; assay type: in vivo, Sprague-Dawley rats
Text: as §1
Individual values for the coagulation parameters activated partial thromboplastin (aPTT) and prothrombin times (PT) for each animal are listed in Table 34 (normal ranges, Table 30). These are summarized in terms of descriptive statistics in Table 25.

Urinalysis, day 15 = assay type: in vivo, Sprague-Dawley rats
Text: as §1
There were no notable differences between the active treatment groups and controls and the observations are all consistent with those expected for this species.

nAChR α4/β2 [3] = target: T1, nAChR α4/β2 (Homo sapiens, UniProt P17787+P43681); assay: nAChR α4/β2 channel agonist assay (FLIPR membrane potential); assay type: cell-based; conditions: 0.3-1000 μM
T1 construct: host or cells: HEK293 cells, transient transfection
T1 sequence (P17787 26-502): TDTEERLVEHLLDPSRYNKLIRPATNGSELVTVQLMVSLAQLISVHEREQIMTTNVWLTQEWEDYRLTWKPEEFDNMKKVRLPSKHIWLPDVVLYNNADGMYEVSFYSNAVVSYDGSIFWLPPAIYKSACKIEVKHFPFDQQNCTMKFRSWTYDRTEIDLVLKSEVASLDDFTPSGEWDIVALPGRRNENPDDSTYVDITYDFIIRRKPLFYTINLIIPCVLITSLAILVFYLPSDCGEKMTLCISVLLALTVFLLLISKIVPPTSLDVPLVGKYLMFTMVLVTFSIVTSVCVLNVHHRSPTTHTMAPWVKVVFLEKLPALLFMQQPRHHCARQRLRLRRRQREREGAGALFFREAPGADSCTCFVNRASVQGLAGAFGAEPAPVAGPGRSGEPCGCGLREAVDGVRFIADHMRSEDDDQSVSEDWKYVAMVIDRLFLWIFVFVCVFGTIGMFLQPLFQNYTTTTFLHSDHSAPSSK
T1 sequence (P43681 29-627): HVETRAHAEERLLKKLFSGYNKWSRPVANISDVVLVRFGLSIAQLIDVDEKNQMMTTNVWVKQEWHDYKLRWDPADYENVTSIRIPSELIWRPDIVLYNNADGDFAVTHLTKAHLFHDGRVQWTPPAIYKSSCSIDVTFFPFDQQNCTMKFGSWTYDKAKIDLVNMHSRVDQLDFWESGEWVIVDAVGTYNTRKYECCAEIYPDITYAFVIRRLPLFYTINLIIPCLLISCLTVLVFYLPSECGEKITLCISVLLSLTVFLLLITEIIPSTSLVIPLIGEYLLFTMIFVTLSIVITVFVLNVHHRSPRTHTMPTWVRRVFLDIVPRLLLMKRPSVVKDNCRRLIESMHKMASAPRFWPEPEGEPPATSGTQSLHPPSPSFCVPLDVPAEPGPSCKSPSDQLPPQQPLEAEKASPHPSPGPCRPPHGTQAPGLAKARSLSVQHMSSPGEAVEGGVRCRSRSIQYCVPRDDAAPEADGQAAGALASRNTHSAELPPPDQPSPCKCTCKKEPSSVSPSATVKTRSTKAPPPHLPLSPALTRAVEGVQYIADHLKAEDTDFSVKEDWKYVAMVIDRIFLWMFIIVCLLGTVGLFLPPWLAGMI
Protocol: (§2) The following three (3) channels were evaluated: • 1. nAChR α3/β4 (encoded by the human CHRNA3 and CHRNB4 gene and stably expressed in CHO cells); • 2. nAChR α4/β2 (CHRNA4 and CHRNB2 gene and transiently expressed in HEK293 cells); and • 3. nAChR α7 (encoded by the human nicotinic α7 gene coexpressed in CHO cells with the chaperone RIC-3 encoded by the human RIC3 gene).
(§3) The ability of each test article to act as an agonist, a positive allosteric modulator or antagonist of three nAChR receptor channels was evaluated in the presence of 0.1 atropine. Both test articles were evaluated for responses on each nAChR channel at eight (8) concentrations: 0.3, 1, 3, 10, 30, 100, 300, and 1000 μM (n=4 for each concentration).
(§4) HEK293 or CHO cells were transiently or stably transfected with the appropriate human ion channel cDNAs. Stable transfectants were selected by coexpression with the antibiotic-resistance gene(s) incorporated into the expression plasmid(s). Selection pressure was maintained by including selection antibiotics in the culture medium. HEK293 cells were cultured in Dulbecco's Modified Eagle Medium/Nutrient Mixture F-12 (D-MEM/F-12) supplemented with 10% fetal bovine serum, 100 U/mL penicillin G sodium, 100 g/mL streptomycin sulfate and appropriate selection antibiotics. CHO cells were cultured in Ham's F-12 supplemented with 10% fetal bovine serum, 100 U/mL penicillin G sodium, 100 g/mL streptomycin sulfate and appropriate selection antibiotics.
(§5) For FLIPR TETRA™ assay, cells were plated in 384-well black wall, flat clear bottom microtiter plates (Type: BD Biocoat Poly-D-Lysine Multiwell Cell Culture Plate) at 20,000 to 30,000 cells per well (384-well plate). Cells were incubated at 37° C. overnight or until the cells reached a sufficient density in the wells (near confluent monolayer) to use in fluorescence assays. For α4β2 assay, cells were incubated at 27° C. for at least 7 hours before use.
(§6) Experiments were performed with either the FLIPR calcium sensitive dye kit (Fluo-8, ABDbioquest, for nAChR α3/β4 and nAChR α7) or FLIPR membrane potential kit (Molecular Devices, for nAChR α4/β2) according to the manufacturer's instructions. Briefly, cells were incubated with 201 dye for 30 min at 37° C. After dye loading period, for the agonist assay, 5 μl of the test, vehicle, or control articles at concentration of 5 times of final concentration were applied to the cells without stimulation. For the positive allosteric modulation (PAM) and antagonist assay, after test article application, the cells were stimulated with either low dose (for PAM) or high dose (for antagonist) of Ach.
(§7) Concentration-response data was fitted to a Hill equation of the following form:
(§8) where Base is the response at low concentrations of test article, Max is the maximum response at high concentrations, xhalf is the EC50 or IC50, the concentration of test article producing either half-maximal activation or inhibition, and rate is the Hill coefficient. Nonlinear least squares fits were made assuming a simple one-to-one binding model.
The ability of each test article to act as an agonist of the nAChR carried out in the absence of the positive control agonist. The signal elicited in the presence of the positive control agonist (30 μM Ach) was set to 100% and the signal from the vehicle control (HBPS) was set to 0%. Values were considered significant (bold font) if the test article mean was three or more standard deviations above from the vehicle control mean.

nAChR α4/β2 [4] = target: T1, nAChR α4/β2; assay type: cell-based; conditions: 100 μM Ach + 0.3 μM epibatidine; not concentration-dependent, IC50 not determinable
Protocol: as §2, §3
HEK293 or CHO cells were transiently or stably transfected with the appropriate human ion channel cDNAs. Stable transfectants were selected by coexpression with the antibiotic-resistance gene(s) incorporated into the expression plasmid(s). […]
For FLIPR TETRA™ assay, cells were plated in 384-well black wall, flat clear bottom microtiter plates (Type: BD Biocoat Poly-D-Lysine Multiwell Cell Culture Plate) at 20,000 to 30,000 cells per well (384-well plate). Cells were incubated at 37° C. overnight or until the cells reached a sufficient density in the wells (near confluent monolayer) to use in fluorescence assays. […]

nAChR α7 = target: T2, nAChR α7 (Homo sapiens, UniProt P36544); assay: nAChR α7 channel agonist assay (FLIPR, with PNU-120596); assay type: cell-based; conditions: with 10 μM PNU-120596; maximal stimulation not achieved
T2 construct: host or cells: CHO cells
T2 sequence (P36544 23-502): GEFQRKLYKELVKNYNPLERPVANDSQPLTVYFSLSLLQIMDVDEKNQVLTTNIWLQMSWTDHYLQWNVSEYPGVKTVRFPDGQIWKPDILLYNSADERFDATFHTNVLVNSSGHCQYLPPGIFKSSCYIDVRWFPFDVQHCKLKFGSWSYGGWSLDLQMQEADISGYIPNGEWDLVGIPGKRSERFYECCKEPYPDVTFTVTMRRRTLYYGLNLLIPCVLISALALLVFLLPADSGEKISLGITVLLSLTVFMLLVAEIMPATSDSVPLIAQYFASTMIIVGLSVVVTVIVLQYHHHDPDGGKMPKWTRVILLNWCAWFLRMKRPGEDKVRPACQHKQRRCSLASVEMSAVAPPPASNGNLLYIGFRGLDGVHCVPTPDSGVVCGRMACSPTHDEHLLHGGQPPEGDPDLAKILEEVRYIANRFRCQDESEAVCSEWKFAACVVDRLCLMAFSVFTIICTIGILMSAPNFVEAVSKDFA
Protocol: Therefore, the assay of agonist activity for either Ach or for the test articles was conducted in the presence of the positive allosteric modulator.

nAChR α3/β4 [5] = target: T3, nAChR α3/β4 (Homo sapiens, UniProt P30926+P32297); conditions: in presence of 10 μM Ach
T3 sequence (P32297 32-505): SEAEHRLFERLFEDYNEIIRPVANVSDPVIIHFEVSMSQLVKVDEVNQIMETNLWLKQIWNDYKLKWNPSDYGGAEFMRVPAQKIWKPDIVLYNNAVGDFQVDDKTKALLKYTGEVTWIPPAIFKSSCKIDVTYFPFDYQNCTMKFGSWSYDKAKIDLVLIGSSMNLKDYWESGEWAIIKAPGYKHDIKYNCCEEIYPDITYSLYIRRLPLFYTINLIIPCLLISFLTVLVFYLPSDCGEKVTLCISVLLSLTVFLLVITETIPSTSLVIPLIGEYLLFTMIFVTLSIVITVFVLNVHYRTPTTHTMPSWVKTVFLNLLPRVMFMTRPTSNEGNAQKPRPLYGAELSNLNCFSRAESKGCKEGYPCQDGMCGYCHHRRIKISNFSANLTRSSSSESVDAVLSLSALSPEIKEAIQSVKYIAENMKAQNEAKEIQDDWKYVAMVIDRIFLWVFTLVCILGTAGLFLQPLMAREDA
T3 sequence (P30926 22-498): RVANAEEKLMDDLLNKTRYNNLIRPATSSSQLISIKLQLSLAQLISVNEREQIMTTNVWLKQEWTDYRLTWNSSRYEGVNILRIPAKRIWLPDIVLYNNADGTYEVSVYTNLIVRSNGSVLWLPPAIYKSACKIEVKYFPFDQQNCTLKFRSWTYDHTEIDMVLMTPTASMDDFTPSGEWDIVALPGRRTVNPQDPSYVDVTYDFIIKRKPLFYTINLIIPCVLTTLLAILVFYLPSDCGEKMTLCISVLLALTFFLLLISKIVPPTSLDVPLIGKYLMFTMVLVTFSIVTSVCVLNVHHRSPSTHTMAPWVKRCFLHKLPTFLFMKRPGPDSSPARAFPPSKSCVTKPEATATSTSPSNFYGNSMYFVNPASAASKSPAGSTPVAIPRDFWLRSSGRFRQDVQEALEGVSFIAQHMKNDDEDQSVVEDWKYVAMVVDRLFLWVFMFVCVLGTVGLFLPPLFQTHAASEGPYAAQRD
Protocol: as §4, §5, §6
The signal elicited in the presence of the positive control agonist and allosteric modulator (10 μM Ach+1 μM epibatidine) was set to 100% and the signal from the agonist control (10 μM Ach) was set to 0%.

nAChR α3/β4 [6] = target: T3, nAChR α3/β4; assay: nAChR α3/β4 channel agonist assay (FLIPR, Fluo-8 calcium); conditions: 0.3-1000 μM; maximal stimulation not achieved
Protocol: as §2, §3, §4, §5, §6, §7, §8
The ability of both test articles to act as an agonist of nAChR carried out in the absence of the positive control agonist. The signal elicited in the presence of the positive control agonist, 30 μM acetylcholine (Ach) was set to 100% and the signal from the vehicle control, HEPES-buffered physiological saline (HBPS) solution was set to 0%.

[7] = anatabine 0.1 mg/kg, male rats, individual animals
[8] = anatabine 0.75 mg/kg, female rats, individual animals
[9] = anatabine 0.75 mg/kg, male rats, individual animals
[10] = Anatabine dose 0.1 mg/kg, individual animals B1-B10 (M and F)
[11] = Anatabine dose 0.1 mg/kg, individual animals B1-B10 (M and F), 0.1 mg/kg
[12] = Anatabine dose 0.75 mg/kg, individual animals C1-C10 (M and F)
[13] = Anatabine dose 0.75 mg/kg, individual animals C1-C10 (M and F), 0.75 mg/kg

## C1=CCC(c2cccnc2)NC1 (racemic) [Anatabine, 1,2,3,6-tetrahydro-[2,3′]bipyridinyl]
[1]; 0.1 mg/kg
  Organ Weight Brain: 1.86 g
  Organ Weight Heart: 1.13 g
  Organ Weight Kidneys: 2.18 g
  Organ Weight Liver: 10.84 g
  Organ Weight Lungs: 1.41 g
  Organ Weight Ovaries/uterus: 1.14 g
  Organ Weight Small intestine: 0.65 g
  Organ Weight Spleen: 0.65 g
  Organ Weight Thymus: 0.64 g
[1]; 0.75 mg/kg
  Organ Weight Brain: 1.90 g
  Organ Weight Heart: 1.11 g
  Organ Weight Kidneys: 2.30 g
  Organ Weight Liver: 10.42 g
  Organ Weight Lungs: 1.45 g
  Organ Weight Ovaries/uterus: 1.58 g
  Organ Weight Small intestine: 0.75 g
  Organ Weight Spleen: 0.60 g
  Organ Weight Thymus: 0.56 g
[2]; anatabine 0.1 mg/kg, female rats, individual animals
  ACTIVE PARTIAL THROMBOPLASTIN TIME: 31.1 s and 34.2 s and 26 s and 28.9 s
[2]; [7]
  ACTIVE PARTIAL THROMBOPLASTIN TIME: 36.4 s and 28.9 s and 32 s
  PROTHROMBIN TIME: 13.4 s and 12.5 s
[2]; [8]
  ACTIVE PARTIAL THROMBOPLASTIN TIME: 32.5 s and 32.7 s and 38.2 s
  PROTHROMBIN TIME: 23.8 s
[2]; [9]
  ACTIVE PARTIAL THROMBOPLASTIN TIME: 39.7 s and 43.9 s and 50.4 s
  PROTHROMBIN TIME: 17.9 s
[2]; female, 0.1 mg/kg, group mean
  ACTIVATED PARTIAL THROMBOPLASTIN TIME: 29.4 s
[2]; female, 0.75 mg/kg, group mean
  ACTIVATED PARTIAL THROMBOPLASTIN TIME: 33.3 s
  PROTHROMBIN TIME: 14.1 s
[2]; male, 0.1 mg/kg, group mean
  PROTHROMBIN TIME: 12.8 s
[2]; male, 0.75 mg/kg, group mean
  ACTIVATED PARTIAL THROMBOPLASTIN TIME: 38.7 s
  PROTHROMBIN TIME: 13.3 s
Urinalysis, day 15; Anatabine dose 0.1 mg/kg, animal B9 (F), unit not given
  Urinalysis VOLUME: 0.5
Urinalysis, day 15; [10]
  Urinalysis CLARITY: HAZY
  Urinalysis COLOR: YELLOW
  Urinalysis GLUCOSE: NEGATIVE
  Urinalysis UROBILINOGEN: NORMAL
  Urinalysis VOLUME: <0.5 mL
Urinalysis, day 15; [11]
  Urinalysis BILIRUBIN: NEGATIVE
  Urinalysis BLOOD: TRACE; also recorded: NEGA-
  Urinalysis KETONES: NEGATIVE
  Urinalysis PROTEIN: TRACE; also recorded: NEGA-
  Urinalysis SPEC GRAVITY: 1.027 (2×) and 1.039 (2×) and 1.048 and 1.036 and 1.045 and 1.017
  Urinalysis pH: 8.5 and 7.5 (4×) and 7 (2×) and 8
Urinalysis, day 15; [12]
  Urinalysis CLARITY: HAZY
  Urinalysis COLOR: YELLOW
  Urinalysis GLUCOSE: NEGATIVE
  Urinalysis UROBILINOGEN: NORMAL
Urinalysis, day 15; [13]
  Urinalysis BILIRUBIN: NEGATIVE
  Urinalysis BLOOD: TRACE; also recorded: NEGA-
  Urinalysis KETONES: NEGATIVE
  Urinalysis PROTEIN: TRACE
  Urinalysis SPEC GRAVITY: 1.05 and 1.051 and 1.043 and 1.049 and 1.016 and 1.039 and 1.036 and 1.014
  Urinalysis VOLUME: <0.5 mL (8×) and <0.25 mL
  Urinalysis pH: 7 (3×) and 8 (3×) and 7.5 and 6
nAChR α4/β2 [3]
  agonist activity: displays full agonist activity
nAChR α4/β2 [4]
  inhibition of receptor activity: inhibited receptor activity
nAChR α7
  agonist activity: showed agonist activity
nAChR α3/β4 [5]
  potentiation: Neither nicotine nor anatabine potentiated the activity
nAChR α3/β4 [6]
  agonist activity: showed agonist activity
